These results are taken from the NIST ThermoML archive (doi:10.1021/je400004j).

The conditions of data set [1]: 298.15 K; for surface tension liquid-gas: Ring tensiometer; for mass density: 101.33 kPa, Liquid, Vibrating tube method.
Data set [2] is described as follows: xn = mol fraction of the nth substance listed. The following applies: 298.15 K, Ring tensiometer.

Usually surface tension liquid-gas stands for the work needed to enlarge the surface of a liquid by unit area. For orientation: mass density means the mass of a sample divided by its volume.

± gives the expanded uncertainty stated by the source.

For the compound `CCOP(=O)([O-])OCC.CCn1cc[n+](CC)c1` [1,3-diethyl-1H-imidazol-3-ium diethyl phosphate], in data set [1], the surface tension liquid-gas worked out at 35.5 ± 0.5 mN/m and the mass density was found to be 1125.96 ± 0.15 kg/m3.

Regarding `COP(=O)([O-])OC.Cn1cc[n+](C)c1` [1,3-dimethylimidazolium dimethylphosphate], in data set [1], the surface tension liquid-gas amounted to 48.4 ± 0.6 mN/m and the mass density is recorded as 1252.6 ± 0.22 kg/m3.

Regarding `CCCCn1cc[n+](CC)c1.CCOP(=O)([O-])OCC` [1-butyl-3-ethyl-1H-imidazol-3-ium diethyl phosphate], in data set [1], the surface tension liquid-gas was determined as 32.2 ± 0.5 mN/m and the mass density came to 1083.21 ± 0.1 kg/m3.

With `CCCCn1cc[n+](C)c1.COP(=O)([O-])OC` [1-butyl-3-methyl-1H-imidazolium dimethylphosphate], the surface tension liquid-gas in data set [1] amounted to 38 ± 0.5 mN/m.

For `CCCCOP(=O)([O-])OCCCC.CCCCn1cc[n+](C)c1` [1-butyl-3-methylimidazolium dibutyl phosphate], in data set [1], the surface tension liquid-gas amounted to 29.4 ± 0.4 mN/m and the mass density is 1046.18 ± 0.09 kg/m3.

Take `CCOP(=O)([O-])OCC.CCn1cc[n+](C)c1` [1-ethyl-3-methylimidazolium diethyl phosphate]: in data set [1], the surface tension liquid-gas stood at 37.1 ± 0.5 mN/m and the mass density came out at 1148.86 ± 0.14 kg/m3.

Turning to `CCOP(=O)([O-])OCC.CCn1cc[n+](C)c1` [1-ethyl-3-methylimidazolium diethyl phosphate] + O, the surface tension liquid-gas in data set [2] (x1 = 0.02) is reported as 49.7 ± 1.4 mN/m; in data set [2] (x1 = 0.04) it was 46.5 ± 0.6 mN/m; in data set [2] (x1 = 0.08) it was 44.2 ± 0.6 mN/m; in data set [2] (x1 = 0.1), 42.6 ± 0.6 mN/m; in data set [2] (x1 = 0.12), 41.4 ± 0.6 mN/m; in data set [2] (x1 = 0.14), 40.7 ± 0.6 mN/m. In addition, the surface tension liquid-gas in data set [2] (x1 = 0.2) is reported as 38.9 ± 0.5 mN/m; in data set [2] (x1 = 0.3), 38 ± 0.5 mN/m; in data set [2] (x1 = 0.4), 37.8 ± 0.5 mN/m; in data set [2] (x1 = 0.5), 37.5 ± 0.5 mN/m; in data set [2] (x1 = 0.6), 37.4 ± 0.5 mN/m; in data set [2] (x1 = 0.7) it was 37.3 ± 0.5 mN/m. In addition, the values for the surface tension liquid-gas in data set [2] (x1 = 0.8), in data set [2] (x1 = 0.9) and in data set [2] (x1 = 1) were 37.2 ± 0.5 mN/m, 37.3 ± 0.5 mN/m and 37.1 ± 0.5 mN/m, respectively.

Regarding `CCn1cc[n+](C)c1.COP(=O)([O-])OC` [1-ethyl-3-methylimidazolium dimethylphosphate], in data set [1], the surface tension liquid-gas worked out at 44.3 ± 0.62 mN/m.

With `CCn1cc[n+](C)c1.COP(=O)([O-])OC` [1-ethyl-3-methylimidazolium dimethylphosphate] + CCO, the surface tension liquid-gas in data set [2] (x1 = 0.1) came to 22.9 ± 0.4 mN/m; in data set [2] (x1 = 0.2), 24 ± 0.4 mN/m; in data set [2] (x1 = 0.3), 25.5 ± 0.4 mN/m; in data set [2] (x1 = 0.4), 27.5 ± 0.4 mN/m; in data set [2] (x1 = 0.5), 29.5 ± 0.4 mN/m; in data set [2] (x1 = 0.6) it was 31.7 ± 0.5 mN/m. Moreover, the surface tension liquid-gas in data set [2] (x1 = 0.7) came to 34 ± 0.5 mN/m; in data set [2] (x1 = 0.8) it was 36.5 ± 0.5 mN/m; in data set [2] (x1 = 0.9) it was 39.3 ± 0.6 mN/m; in data set [2] (x1 = 1), 44.3 ± 0.6 mN/m.

With `CCn1cc[n+](C)c1.COP(=O)([O-])OC` [1-ethyl-3-methylimidazolium dimethylphosphate] + CO, the surface tension liquid-gas in data set [2] (x1 = 0.1) stood at 26.7 ± 0.4 mN/m; in data set [2] (x1 = 0.2) it was 29.5 ± 0.4 mN/m; in data set [2] (x1 = 0.3) it was 31.8 ± 0.5 mN/m; in data set [2] (x1 = 0.4), 33.7 ± 0.5 mN/m; in data set [2] (x1 = 0.5) it was 35.6 ± 0.5 mN/m; in data set [2] (x1 = 0.6), 37 ± 0.5 mN/m. For the same compound, the surface tension liquid-gas in data set [2] (x1 = 0.7) was found to be 38.9 ± 0.6 mN/m; in data set [2] (x1 = 0.8) it was 40.6 ± 0.6 mN/m; in data set [2] (x1 = 0.9), 42.4 ± 0.6 mN/m; in data set [2] (x1 = 1), 44.3 ± 0.6 mN/m.

In the case of `CCn1cc[n+](C)c1.COP(=O)([O-])OC` [1-ethyl-3-methylimidazolium dimethylphosphate] + O, the surface tension liquid-gas in data set [2] (x1 = 0.1) was 48.9 ± 0.69 mN/m; in data set [2] (x1 = 0.2), 47 ± 0.63 mN/m; in data set [2] (x1 = 0.3) it was 46.4 ± 0.62 mN/m; in data set [2] (x1 = 0.4) it was 46.2 ± 0.62 mN/m; in data set [2] (x1 = 0.5), 45.1 ± 0.61 mN/m; in data set [2] (x1 = 0.6) it was 44.2 ± 0.6 mN/m. For the same compound, the surface tension liquid-gas in data set [2] (x1 = 0.7) was determined as 44.1 ± 0.61 mN/m; in data set [2] (x1 = 0.8), 44.5 ± 0.62 mN/m; in data set [2] (x1 = 0.9), 44.4 ± 0.62 mN/m; in data set [2] (x1 = 1) it was 44.3 ± 0.62 mN/m.

Regarding `CCO` [ethanol], in data set [1], the surface tension liquid-gas is 21.9 ± 0.3 mN/m and the mass density was found to be 785.83 ± 0.17 kg/m3.

In the case of `CCO` [ethanol] + CCCCOP(=O)([O-])OCCCC.CCCCn1cc[n+](C)c1, in data set [2] (x2 = 0), the surface tension liquid-gas is recorded as 21.9 ± 0.3 mN/m.

As for `CCO` [ethanol] + CCCCn1cc[n+](C)c1.COP(=O)([O-])OC, the surface tension liquid-gas in data set [2] (x2 = 0) was found to be 21.9 ± 0.3 mN/m.

Turning to `CCO` [ethanol] + CCCCn1cc[n+](CC)c1.CCOP(=O)([O-])OCC, the surface tension liquid-gas in data set [2] (x2 = 0) was 21.9 ± 0.3 mN/m.

For `CCO` [ethanol] + CCOP(=O)([O-])OCC.CCn1cc[n+](C)c1, the surface tension liquid-gas in data set [2] (x2 = 0) is reported as 21.9 ± 0.3 mN/m.

As for `CCO` [ethanol] + CCOP(=O)([O-])OCC.CCn1cc[n+](CC)c1, in data set [2] (x2 = 0), the surface tension liquid-gas turned out to be 21.9 ± 0.3 mN/m.

As for `CCO` [ethanol] + CCn1cc[n+](C)c1.COP(=O)([O-])OC, the surface tension liquid-gas in data set [2] (x2 = 0) came to 21.9 ± 0.3 mN/m.

For `CCO` [ethanol] + COP(=O)([O-])OC.Cn1cc[n+](C)c1, the surface tension liquid-gas in data set [2] (x2 = 0) stood at 21.9 ± 0.3 mN/m.

As for `CO` [methanol], in data set [1], the surface tension liquid-gas came out at 22.4 ± 0.3 mN/m and the mass density amounted to 786.55 ± 0.17 kg/m3.

In the case of `CO` [methanol] + CCCCOP(=O)([O-])OCCCC.CCCCn1cc[n+](C)c1, in data set [2] (x2 = 0), the surface tension liquid-gas is on record as 22.4 ± 0.3 mN/m.

For the compound `CO` [methanol] + CCCCn1cc[n+](C)c1.COP(=O)([O-])OC, in data set [2] (x2 = 0), the surface tension liquid-gas amounted to 22.4 ± 0.3 mN/m.

As to `CO` [methanol] + CCCCn1cc[n+](CC)c1.CCOP(=O)([O-])OCC, the surface tension liquid-gas in data set [2] (x2 = 0) was 22.4 ± 0.3 mN/m.

On to `CO` [methanol] + CCOP(=O)([O-])OCC.CCn1cc[n+](C)c1, for which the surface tension liquid-gas in data set [2] (x2 = 0) came out at 22.4 ± 0.3 mN/m.

For `CO` [methanol] + CCOP(=O)([O-])OCC.CCn1cc[n+](CC)c1, the surface tension liquid-gas in data set [2] (x2 = 0) is reported as 22.4 ± 0.3 mN/m.

As for `CO` [methanol] + CCn1cc[n+](C)c1.COP(=O)([O-])OC, the surface tension liquid-gas in data set [2] (x2 = 0) was determined as 22.4 ± 0.3 mN/m.

As for `CO` [methanol] + COP(=O)([O-])OC.Cn1cc[n+](C)c1, the surface tension liquid-gas in data set [2] (x2 = 0) worked out at 22.4 ± 0.3 mN/m.

Turning to `O` [water], in data set [1], the surface tension liquid-gas came to 71.9 ± 0.9 mN/m.

With `O` [water] + CCCCOP(=O)([O-])OCCCC.CCCCn1cc[n+](C)c1, the surface tension liquid-gas in data set [2] (x2 = 0) is recorded as 71.9 ± 0.9 mN/m.

Regarding `O` [water] + CCCCn1cc[n+](C)c1.COP(=O)([O-])OC, the surface tension liquid-gas in data set [2] (x2 = 0) was 71.9 ± 0.9 mN/m.

As for `O` [water] + CCCCn1cc[n+](CC)c1.CCOP(=O)([O-])OCC, the surface tension liquid-gas in data set [2] (x2 = 0) was 71.9 ± 0.9 mN/m.

As to `O` [water] + CCOP(=O)([O-])OCC.CCn1cc[n+](C)c1, the surface tension liquid-gas in data set [2] (x2 = 0) was found to be 71.9 ± 0.9 mN/m.

As to `O` [water] + CCOP(=O)([O-])OCC.CCn1cc[n+](CC)c1, in data set [2] (x2 = 0), the surface tension liquid-gas worked out at 71.9 ± 0.9 mN/m.

On to `O` [water] + CCn1cc[n+](C)c1.COP(=O)([O-])OC, for which the surface tension liquid-gas in data set [2] (x2 = 0) is 71.9 ± 0.91 mN/m.

Take `O` [water] + COP(=O)([O-])OC.Cn1cc[n+](C)c1: the surface tension liquid-gas in data set [2] (x2 = 0) is 71.9 ± 0.9 mN/m.
